Activity calls are given as the source filed them.
Columns and labels:
Large T antigen = Large T antigen (Simian virus 40, UniProt P03070); format: functional, Betapolyomavirus macacae;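 also: Confirmatory-stage PubChem screen for compounds that inhibit SV40 T antigen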
[1] = Luminescence Cell-Based Dose Confirmation HTS to Identify Inhibitors of Platelet Dense Granule Release. [Related pubchem assays: 1663 (Primary HTS), 1678 (Summary of Project)]; format: functional
[2] = target: Luciferin 4-monooxygenase (Photinus pyralis, UniProt P08659); assay: inhibition of purified Photinus pyralis luciferase – biochemical, luminescence, dose response (AID 1891)
[3] = target: Induced myeloid leukemia cell differentiation protein Mcl-1 (Homo sapiens, UniProt Q07820); format: functional
[4] = NIH3T3 cell viability loss – ATP luminescence, mouse fibroblasts, counter-screen, dose response (AID 2010); format: functional, cell-based;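 also: cells exposed to compound for about 90 hours before reading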
cells = format: functional
[5] = Trypanosoma cruzi growth suppression in host cells – NIH3T3 host cells, beta-gal luminescence, confirmation (AID 2044); format: functional, cell-based;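 also: intracellular parasites grown in NIH/3T3 mouse fibroblasts as host cells; luminescent beta-galactosidase reporter signal from transgenic T. cruzi replicating inside host cells; inhibitors lower the luminescence signal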
BJ [6] = assay: BJ-TERT fibroblast viability loss – cell-based, RAS-independent, luminescence, dose response (AID 1933); format: functional, Homo sapiens; conditions: Homo sapiens, BJ
BJ [7] = assay: BJ-TERT-LT-ST fibroblast viability loss – cell-based, RAS-independent, luminescence, dose response (AID 1935); format: functional, Homo sapiens; conditions: Homo sapiens, BJ;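 also: BJ fibroblasts immortalized with TERT plus LT and ST oncogenes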
BJ [8] = assay: cells; format: functional, cell-based, Homo sapiens; conditions: Homo sapiens, BJ
[9] = DRD fibroblast viability loss – cell-based, non-viral oncogenic, luminescence, dose response (AID 1934); format: functional; conditions: Homo sapiens
Protein skinhead-1 = target: T1, Protein skinhead-1 (Caenorhabditis elegans, UniProt P34707); format: functional
T1 sequence (P34707 whole entry): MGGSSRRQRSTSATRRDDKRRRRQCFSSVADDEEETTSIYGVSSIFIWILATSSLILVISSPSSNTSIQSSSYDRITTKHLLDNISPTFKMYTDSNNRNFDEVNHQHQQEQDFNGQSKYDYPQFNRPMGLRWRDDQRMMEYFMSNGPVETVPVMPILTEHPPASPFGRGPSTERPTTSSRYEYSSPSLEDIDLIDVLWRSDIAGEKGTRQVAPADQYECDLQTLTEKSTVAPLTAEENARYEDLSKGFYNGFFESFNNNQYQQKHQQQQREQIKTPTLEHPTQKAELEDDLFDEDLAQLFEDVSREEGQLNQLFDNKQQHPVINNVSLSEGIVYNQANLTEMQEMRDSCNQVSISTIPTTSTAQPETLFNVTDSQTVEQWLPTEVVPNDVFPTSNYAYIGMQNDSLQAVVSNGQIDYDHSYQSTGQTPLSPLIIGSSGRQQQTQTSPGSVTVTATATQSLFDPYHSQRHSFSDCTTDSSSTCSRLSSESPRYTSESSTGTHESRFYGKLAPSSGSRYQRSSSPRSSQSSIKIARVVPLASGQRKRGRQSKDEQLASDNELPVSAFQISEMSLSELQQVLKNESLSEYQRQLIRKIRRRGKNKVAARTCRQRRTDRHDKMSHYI

[10] = fluconazole-exposed Candida albicans growth modulators – fluorescence, retest, confirmation (AID 2467); format: functional, cell-based
[11] = viability of PTEN-deleted HCT116 cells – cell-based, HCT116 PTEN knockout, dose response (AID 1047); format: functional;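 also: HCT116 colon tumor cells with PTEN knocked out; cells exposed to compound for 60 hours before readout; potency for loss of cell viability measured by luminescence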
[12] = viability of HCT116 lacking mutant beta-catenin – cell-based, human colon tumor, dose response (AID 1045); format: functional;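 also: HCT116 colon tumor cells with beta catenin knocked out; cells exposed to compound for 60 hours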
[13] = NIH-3T3 fibroblast cytotoxicity, dose response, cytotoxicity control, cell-based, fluorescence, Alamar Blue, secondary assay (AID 2327); format: functional;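 also: NIH-3T3 mouse fibroblasts cultured with fluconazole at 8 µg/mL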
Cytochrome P450 2C9 = Cytochrome P450 2C9 (Homo sapiens, UniProt P11712)
[14] = HEK-293T viability loss after treatment – luminescence, T-cell screen hits, cytotoxicity control for TCR NF-kB inhibitor project, dose response (AID 489026); format: functional, cell-based;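 also: cells exposed to compound about 14 hours before the viability readout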
[15] = Luminescence Cell-Based Dose Retest to Confirm Inhibitors of Cancer Stem Cells. [Related pubchem assays (depositor defined):AID2717, AID2721]; format: functional; conditions: Homo sapiens
SN12K1 = assay: cells; format: functional; conditions: Homo sapiens
P388/ADR = assay: cells; format: functional; conditions: Mus musculus
P388 = assay: cells; format: functional; conditions: Mus musculus
[16] = target: T2, Rac GTPase-activating protein 1 (Homo sapiens, UniProt Q9H0H5); assay: blockers of MgcRacGAP-driven Rac1 GTP hydrolysis – biochemical, ADP Hunter fluorescence, primary and confirmatory, confirmation (AID 624330); format: functional
T2 sequence (Q9H0H5 whole entry): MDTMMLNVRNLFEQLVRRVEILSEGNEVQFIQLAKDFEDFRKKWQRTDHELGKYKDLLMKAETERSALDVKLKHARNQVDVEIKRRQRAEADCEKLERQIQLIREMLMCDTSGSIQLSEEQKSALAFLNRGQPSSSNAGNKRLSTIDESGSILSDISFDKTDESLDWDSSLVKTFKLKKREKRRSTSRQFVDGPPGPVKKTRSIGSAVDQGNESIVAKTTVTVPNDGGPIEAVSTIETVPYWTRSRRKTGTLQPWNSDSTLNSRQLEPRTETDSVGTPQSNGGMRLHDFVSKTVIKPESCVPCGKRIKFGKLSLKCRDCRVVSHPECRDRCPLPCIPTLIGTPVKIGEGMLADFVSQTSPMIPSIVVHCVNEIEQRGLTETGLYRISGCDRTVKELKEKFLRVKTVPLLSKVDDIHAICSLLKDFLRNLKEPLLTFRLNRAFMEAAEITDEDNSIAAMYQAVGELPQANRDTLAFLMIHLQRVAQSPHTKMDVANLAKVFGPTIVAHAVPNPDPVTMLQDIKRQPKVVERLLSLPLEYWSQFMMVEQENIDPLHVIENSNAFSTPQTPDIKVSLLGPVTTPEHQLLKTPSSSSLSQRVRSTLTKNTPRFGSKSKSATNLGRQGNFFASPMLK

Chain of Induced myeloid leukemia cell differentiation protein Mcl-1 (Q07820 whole entry): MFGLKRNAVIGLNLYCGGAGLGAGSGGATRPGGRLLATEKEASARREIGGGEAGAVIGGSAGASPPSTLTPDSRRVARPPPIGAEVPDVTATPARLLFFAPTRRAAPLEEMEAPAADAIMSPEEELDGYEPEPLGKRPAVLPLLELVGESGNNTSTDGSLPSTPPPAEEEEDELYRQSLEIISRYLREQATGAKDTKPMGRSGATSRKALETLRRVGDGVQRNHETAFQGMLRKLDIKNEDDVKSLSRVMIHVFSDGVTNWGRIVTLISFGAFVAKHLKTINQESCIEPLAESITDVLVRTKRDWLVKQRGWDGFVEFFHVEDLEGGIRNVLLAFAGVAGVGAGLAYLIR
Chain of Luciferin 4-monooxygenase (P08659 whole entry): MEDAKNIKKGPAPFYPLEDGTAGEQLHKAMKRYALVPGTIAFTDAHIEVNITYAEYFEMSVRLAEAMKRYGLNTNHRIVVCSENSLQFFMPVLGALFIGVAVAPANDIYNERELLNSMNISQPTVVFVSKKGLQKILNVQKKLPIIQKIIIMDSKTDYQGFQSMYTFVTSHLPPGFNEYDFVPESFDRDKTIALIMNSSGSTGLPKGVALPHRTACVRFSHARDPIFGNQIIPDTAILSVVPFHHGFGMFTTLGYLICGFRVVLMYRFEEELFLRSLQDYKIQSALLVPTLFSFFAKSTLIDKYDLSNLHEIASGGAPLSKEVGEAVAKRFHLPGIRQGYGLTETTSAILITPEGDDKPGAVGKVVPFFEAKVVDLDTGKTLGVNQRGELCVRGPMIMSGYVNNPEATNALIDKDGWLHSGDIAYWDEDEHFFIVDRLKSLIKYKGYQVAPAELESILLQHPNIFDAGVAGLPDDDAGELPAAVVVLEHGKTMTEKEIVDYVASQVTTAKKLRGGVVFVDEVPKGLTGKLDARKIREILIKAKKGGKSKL
Chain of Large T antigen (P03070 whole entry): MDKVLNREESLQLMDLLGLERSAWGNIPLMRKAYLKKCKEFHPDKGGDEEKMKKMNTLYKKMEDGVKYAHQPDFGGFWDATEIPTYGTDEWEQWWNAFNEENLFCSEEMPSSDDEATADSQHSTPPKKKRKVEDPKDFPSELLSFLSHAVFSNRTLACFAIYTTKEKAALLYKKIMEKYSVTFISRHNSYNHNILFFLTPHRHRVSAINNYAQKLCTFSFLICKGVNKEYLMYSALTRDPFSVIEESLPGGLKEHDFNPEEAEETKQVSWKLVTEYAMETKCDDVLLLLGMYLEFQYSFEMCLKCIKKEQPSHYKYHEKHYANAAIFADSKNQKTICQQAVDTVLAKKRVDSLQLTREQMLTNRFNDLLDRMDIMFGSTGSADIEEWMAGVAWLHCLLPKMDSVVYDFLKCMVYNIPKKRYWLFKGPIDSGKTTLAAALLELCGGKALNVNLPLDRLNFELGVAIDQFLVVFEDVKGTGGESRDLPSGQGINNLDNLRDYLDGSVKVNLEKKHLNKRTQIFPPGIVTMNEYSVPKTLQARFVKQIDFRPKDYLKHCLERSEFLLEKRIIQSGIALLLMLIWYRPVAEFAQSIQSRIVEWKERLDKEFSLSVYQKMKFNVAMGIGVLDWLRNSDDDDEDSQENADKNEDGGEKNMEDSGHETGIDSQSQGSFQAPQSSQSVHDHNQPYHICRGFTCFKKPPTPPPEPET
Chain of Cytochrome P450 2C9 (P11712 whole entry): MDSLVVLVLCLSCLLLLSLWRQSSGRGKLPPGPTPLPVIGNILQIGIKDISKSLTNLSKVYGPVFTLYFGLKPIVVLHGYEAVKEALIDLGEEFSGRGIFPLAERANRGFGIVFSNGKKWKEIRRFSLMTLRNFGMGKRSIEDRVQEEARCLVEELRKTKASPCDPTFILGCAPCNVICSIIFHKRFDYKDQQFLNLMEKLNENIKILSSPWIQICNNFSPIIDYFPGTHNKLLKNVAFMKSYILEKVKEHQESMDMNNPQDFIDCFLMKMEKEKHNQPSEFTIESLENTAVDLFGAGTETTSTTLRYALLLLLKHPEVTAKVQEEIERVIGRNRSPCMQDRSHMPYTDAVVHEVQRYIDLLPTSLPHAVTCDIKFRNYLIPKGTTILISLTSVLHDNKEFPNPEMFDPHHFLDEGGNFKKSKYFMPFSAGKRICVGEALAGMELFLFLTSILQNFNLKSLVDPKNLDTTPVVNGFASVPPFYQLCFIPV

N#C/C(=C\c1ccccc1OCc1ccc(C(=O)O)cc1)C(=O)Nc1ccc(O)cc1
IC50 (Large T antigen): 11.5 µM (active)

COc1ccccc1NC(=O)NC1(C(=O)N2CCCCCC2)CCCCC1
EC50 [1]: > 112 µM (not active) | EC50 [2]: > 112 µM (not active)

COc1ccc(C(=O)CSc2nnc(-c3ccco3)c(-c3ccco3)n2)cc1
IC50 [3]: 6.58 µM (active)

Cc1cnc([N+](=O)[O-])n1CCOC(=O)NC(=O)c1cccc(F)c1
EC50 [1]: 18.4 µM (active) | EC50 [2]: > 112 µM (not active)

Cc1cc(NC(=O)c2cc([N+](=O)[O-])cc([N+](=O)[O-])c2)no1
EC50 [4]: > 60 µM (not active) | IC50 (cells): 13.3 µM (active) | EC50 [5]: 0.287 µM (active)

COc1cc2c(cc1OC)-c1cc(Nc3ccccc3)nc(=O)n1CC2
EC50 [1]: 1.63 µM (active) | EC50 [2]: > 112 µM (not active)

CCN(C(=O)CN1C(=O)NC(c2ccccc2)(c2ccccc2)C1=O)c1ccccc1
EC50 [1]: > 112 µM (not active) | EC50 [2]: > 112 µM (not active)

Oc1ccc(N=Nc2ccc3c(c2)OCO3)c2ccccc12
EC50 (BJ [6]): 2.85 µM (active) | EC50 (BJ [7]): 6.46 µM (inconclusive) | EC50 (BJ [8]): 10.9 µM (active) | EC50 [9]: 19.4 µM (inconclusive)

O=C(Nc1nccs1)c1ccc2ccccc2c1
IC50 (Protein skinhead-1): 20.8 µM (active) | IC50 (cells): 6.75 µM (active)

Cc1ccccc1C(=O)Nc1nnc(-c2ccc(F)cc2)o1
EC50 [10]: 1.25 µM (active) | EC50 [11]: 18.4 µM (active) | EC50 [12]: 16.6 µM (active) | EC50 [13]: > 150 µM (inactive)

CCNC(=O)c1c(NC(C)=O)sc2c1CCCC2
AC50 (Cytochrome P450 2C9): 17.8 µM (inconclusive) | EC50 [1]: 15.2 µM (active) | EC50 [2]: > 112 µM (not active)

Cc1ccc(S(=O)(=O)CCC(=O)OCC(=O)NCC(=O)Nc2cccc(C)c2C)cc1
EC50 [1]: > 112 µM (not active) | EC50 [2]: > 112 µM (not active)

CCN1C(=O)C(=Cc2ccc(C)s2)C(=O)N(CC)C1=S
EC50 [11]: 9.84 µM (active) | EC50 [12]: 31.9 µM (active)

N#Cc1c(-c2ccco2)c2c([nH]c1=S)CCCC2
IC50 (Large T antigen): 37.7 µM (active)

Cc1cccc(NC(=O)CSc2cc(C(=O)c3nccn3C)c3ccccc3n2)c1
EC50 [11]: 453 µM (active)

O=C(Nc1ncc(Cc2ccc(SC(F)F)cc2)s1)c1ccc(OC(F)F)cc1
IC50 [14]: > 80 µM (inactive) | AC50 [15]: < 0.16 µM (active)

COc1ccc(NC(=O)C2CCCN(c3nn4c(=O)cc(C)nc4s3)C2)cc1 (centres undefined)
EC50 [1]: > 112 µM (not active) | EC50 [2]: > 112 µM (not active)

COc1ccc(NC(=O)NCCCN2CCN(c3cc(C)ccc3C)CC2)cc1
EC50 [11]: 10.2 µM (active) | EC50 [12]: 7.42 µM (active)

O=C(Nc1cccc(S(=O)(=O)N2CCOCC2)c1)c1c2c(nc3ccccc13)CCC2
IC50 [3]: 5.02 µM (active)

Nc1nc(F)nc2c1ncn2C1OC(COP(=O)(O)O)C(O)C1O (centres undefined)
GI50 (SN12K1): 18.1 µM (inactive) | GI50 (P388/ADR): 4.22 µM (inactive) | GI50 (P388): 3.24 µM (inactive)

CC1CC(C)CC(C)C(O)/C(C#N)=C/C=C/CC(C2CCCC2C(=O)O)OC(=O)CC(O)C(C)C1 (centres undefined)
GI50 (SN12K1): < 0.0109 µM (active) | GI50 (P388/ADR): < 0.01 µM (active) | GI50 (P388): < 0.01 µM (active)

Cc1cc(C)c(C2=NO[C@@H]3[C@H]2C(=O)C=C2N(Cc4ccccc4)CCO[C@@]23O)c(C)c1
GI50 (SN12K1): > 100 µM (inactive) | GI50 (P388/ADR): > 100 µM (inactive) | GI50 (P388): > 100 µM (inactive)

CC1CC=CC(O)C1 (centres undefined)
GI50 (SN12K1): > 100 µM (inactive) | GI50 (P388/ADR): > 100 µM (inactive) | GI50 (P388): 55 µM (inactive)

CCN(CC)CCOC(=O)Cc1cccc2c(=O)cc(-c3ccccc3)oc12
GI50 (SN12K1): 24.7 µM (inactive) | GI50 (P388/ADR): 122 µM (inactive) | GI50 (P388): 206 µM (inactive)

CN(C)CCNC(=O)c1ccc(Cl)c2ccc(-c3ccccc3)nc12
GI50 (SN12K1): 2.28 µM (inactive) | GI50 (P388/ADR): 1.95 µM (inactive) | GI50 (P388): 1.13 µM (inactive)

COCC1N=C(c2cc(OC)c(OC)c(OC)c2-c2cc3c(cc2[C@@H](C)O)OCO3)O[C@H]1c1ccccc1 (some centres undefined)
GI50 (SN12K1): 55.5 µM (inactive) | GI50 (P388/ADR): > 100 µM (inactive) | GI50 (P388): 64.3 µM (inactive)

COc1cc(C2c3cc4c(cc3[C@@H](Nc3cccc([N+](=O)[O-])c3)C3COC(=O)[C@H]23)OCO4)cc(OC)c1O (some centres undefined)
GI50 (SN12K1): 0.589 µM (active) | GI50 (P388/ADR): 0.783 µM (active) | GI50 (P388): < 0.0193 µM (active)

COc1cc(/C=N\NC(=O)c2ccc(Cn3nc([N+](=O)[O-])c(Cl)c3C)o2)ccc1O
IC50 (Large T antigen): 32.7 µM (active) | IC50 [16]: 30.5 µM (active)

COc1cc(/C=N/N(C)c2ccccc2)ccc1O
IC50 (Large T antigen): 8.47 µM (active) | IC50 [16]: 15.6 µM (active)

CN(C)c1ccc(/C=N/NC(=O)c2cccc(C(=O)N/N=C/c3ccc(N(C)C)cc3)n2)cc1
IC50 [3]: 1.15 µM (active)

Cn1c(=O)n(C)c2cc(NC(=O)CCl)ccc21
EC50 (BJ [6]): 18.8 µM (active) | EC50 (BJ [7]): > 75 µM (inconclusive) | EC50 (BJ [8]): 20.7 µM (inconclusive) | EC50 [9]: 28 µM (active)

C[C@@H](CN1CC(=O)NC(=O)C1)N1CC(=O)NC(=O)C1 [DEXRAZOXANE]
GI50 (SN12K1): 24.2 µM (inactive) | GI50 (P388/ADR): 394 µM (inactive) | GI50 (P388): 49.3 µM (inactive)

O=C(O)C[C@H](O)C[C@H](O)/C=C/c1c(C2CC2)nc2ccccc2c1-c1ccc(F)cc1 [PITAVASTATIN CALCIUM]
EC50 (BJ [6]): 0.299 µM (active) | EC50 (BJ [7]): 0.559 µM (active) | EC50 (BJ [8]): 4.21 µM (active) | EC50 [9]: 0.353 µM (active)

Reference: ChEMBL document CHEMBL1201862, “PubChem BioAssay data set” (2004)
